Target: T1, terminal deoxynucleotidyl transferase (TdT) (Bos taurus, UniProt P06526)
T1 construct: purchased Roche (Sigma-Aldrich Canada) 3333574001
Experiment: TdT inhibition by ATP: tailing reaction of linearized pBlueScript plasmid with TdT and dATP, read by DNA size shift on agarose gel
Format: biochemical
Description: Linearized pBlueScript plasmid was used in a tailing reaction using TdT and dATP following manufacturer's instruction. Different concentrations of ATP were added in the reaction and the tailing efficiency was observed after agarose gel electrophoresis by a shift in the DNA size. It was sought to determine conditions for efficient repair of DNA nicks and gaps prior to the TdT end labeling. A proper combination of T4 DNA ligase and T4 DNA polymerase was used to seal nicks and fill the gaps respectively and termed «Nick and Gap Repair» (NGR). […] Limiting the purification steps is crucial to improve DNA recovery throughout the process. It was observed that TdT is inhibited by the high concentration of ATP recommended for DNA ligations (1 mM, FIG. 6). However, it was determined that efficient DNA nick sealing is still observed by decreasing the ATP concentration to 1 μM. […] From these simple modifications, both repair and labeling reactions can be performed without the need for DNA purification between these steps. It is worth noting that although the use of «Tap» DNA ligase would have the advantage of preventing DSB ligations, T4 DNA ligase was however strongly preferred because of its compatibility with the gap-filling step and its greater nick sealing activity (not shown). The efficiency of the repair step for the specific capture of DSBs within genomic DNA was established using HeLa-I-SceI DNA pre-digested with the nicking endonuclease Nt.BbvCI as this enzyme creates a single nick within a 7 nucleotide recognition sequence. A single Nt.BbvCI recognition sequence is present within the I-SceI insert and can be detected by DBrIC using a primer pair adjacent to the nick (FIG. 5C).

T1 sequence (P06526 139-509 limits assumed): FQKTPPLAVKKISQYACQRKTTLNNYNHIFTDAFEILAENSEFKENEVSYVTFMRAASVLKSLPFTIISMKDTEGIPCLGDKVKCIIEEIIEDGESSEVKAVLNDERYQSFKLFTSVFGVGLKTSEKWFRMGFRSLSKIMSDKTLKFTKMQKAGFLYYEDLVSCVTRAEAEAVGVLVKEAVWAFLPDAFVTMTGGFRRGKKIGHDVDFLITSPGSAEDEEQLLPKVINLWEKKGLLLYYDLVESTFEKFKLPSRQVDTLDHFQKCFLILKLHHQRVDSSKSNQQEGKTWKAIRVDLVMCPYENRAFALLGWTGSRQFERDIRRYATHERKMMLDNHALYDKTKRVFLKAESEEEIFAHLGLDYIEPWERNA

subsequent TdT reaction in presence of ATP (1 μM ATP): proceed normally | enzymatic activity of the TdT in presence of ATP (10 μM ATP (usual concentration for DNA ligase and DNA polymerase), FIG. 6): inhibit | TdT enzymatic activity (tailing efficiency) in presence of ATP (1 mM ATP (high concentration recommended for DNA ligations), FIG. 6): inhibited
SMILES: Nc1ncnc2c1ncn2[C@@H]1O[C@H](COP(=O)(O)OP(=O)(O)OP(=O)(O)O)[C@@H](O)[C@H]1O [ATP, adenosine triphosphate]

Source: US10907199B2, “Double-strand DNA break quantification method” (SOCIETE DE COMMERCIALISATION DES PRODUITS DE LA RECHERCHE …, priority 2017, dated 2021)
